Measured values: ChEMBL document CHEMBL1649270, “ST-246 inhibits in vivo poxvirus dissemination, virus shedding, and systemic disease manifestation” (2009)
Activity calls are given as the source filed them. No cut-off for these calls is given here.

Legend:
Vaccinia virus WR [1] = test: Antiviral activity against Vaccinia virus WR ATCC VR-1354 infected through intravenous route in BALB/c mouse assessed as reduction of viral load in blood at 100 mg/kg, po qd measured after 14 days postinfection by RT-PCR analysis relative to control; format: functional, organism-based; parameters: dose 100 mg/kg
Vaccinia virus WR [2] = test: Antiviral activity against Vaccinia virus WR ATCC VR-1354 infected through intravenous route in BALB/c mouse assessed as reduction of viral load in liver at 100 mg/kg, po qd measured after 3 days postinfection by RT-PCR analysis relative to control; format: functional
Vaccinia virus WR [3] = test: Antiviral activity against Vaccinia virus WR ATCC VR-1354 infected through intravenous route in BALB/c mouse assessed as reduction of viral load in brain at 100 mg/kg, po qd measured after 3 days postinfection by RT-PCR analysis relative to control; format: functional
Vaccinia virus WR [4] = test: Antiviral activity against Vaccinia virus WR ATCC VR-1354 infected through intraperitoneal route in BALB/c mouse assessed as reduction of viral load in lung at 100 mg/kg, po qd measured after 3 days postinfection by RT-PCR analysis relative to control; format: functional, organism-based; parameters: dose 100 mg/kg
Vaccinia virus WR [5] = test: Antiviral activity against Vaccinia virus WR ATCC VR-1354 infected through intraperitoneal route in BALB/c mouse assessed as reduction of viral load in brain at 100 mg/kg, po qd measured after 3 days postinfection by RT-PCR analysis relative to control; format: functional, organism-based; parameters: dose 100 mg/kg
Vaccinia virus WR [6] = test: (§1) Antiviral activity against Vaccinia virus WR ATCC VR-1354 in african green monkey BSC-40 cells infected with 7 day postinfection nasal fluid from 100 mg/kg, po qd compound treated BALB/c mouse infected through percutaneous route assessed as reduction of viral attachment to cells by plaque titration assay; format: functional
Vaccinia virus WR [7] = test: as §1, with “BAL” for “nasal”; format: functional
Vaccinia virus WR [8] = test: Antiviral activity against Vaccinia virus WR ATCC VR-1354 infected through dermal scarification route in ACAM2000 vaccinated BALB/c mouse assessed as reduction of swab virus titers at 100 mg/kg, po qd measured after 7 days postinfection by RT-PCR analysis relative to control; format: functional
Vaccinia virus WR [9] = test: Antiviral activity against Vaccinia virus WR ATCC VR-1354 infected through dermal scarification route in ACAM2000 vaccinated BALB/c mouse assessed as reduction of swab virus titers at 100 mg/kg, po qd measured after 14 days postinfection by RT-PCR analysis relative to control; format: functional
Vaccinia virus WR [10] = test: Antiviral activity against Vaccinia virus WR ATCC VR-1354 infected through dermal scarification route in ACAM2000 vaccinated BALB/c mouse assessed as reduction of swab virus titers at 100 mg/kg, po qd measured after 21 days postinfection by RT-PCR analysis relative to control; format: functional
Vaccinia virus WR [11] = test: Antiviral activity against Vaccinia virus WR ATCC VR-1354 infected through percutaneous route in BALB/c mouse assessed as protection against virus-induced death at 100 mg/kg, po qd for 5 to 14 days; format: functional, organism-based; parameters: dose 100 mg/kg
Vaccinia virus WR [12] = test: Antiviral activity against Vaccinia virus WR ATCC VR-1354 infected through percutaneous route in BALB/c mouse assessed as protection against virus-induced death at 100 mg/kg, po qd for 1 to 3 days; format: functional, organism-based; parameters: dose 100 mg/kg
Vaccinia virus WR [13] = test: Antiviral activity against Vaccinia virus WR ATCC VR-1354 infected through percutaneous route in BALB/c mouse assessed as protection against virus-induced systemic disease symptoms at 100 mg/kg, po qd measured after 6 days postinfection; format: functional, organism-based; parameters: dose 100 mg/kg
Vaccinia virus WR [14] = test: Antiviral activity against Vaccinia virus WR ATCC VR-1354 infected through percutaneous route in BALB/c mouse assessed as inhibition of virus dissemination in blood at 100 mg/kg, po qd for 3 to 14 days by RT-PCR analysis; format: functional, organism-based; parameters: dose 100 mg/kg
Vaccinia virus WR [15] = test: Antiviral activity against Vaccinia virus WR ATCC VR-1354 infected through percutaneous route in BALB/c mouse assessed as inhibition of virus dissemination in liver at 100 mg/kg, po qd for 3 to 14 days by RT-PCR analysis; format: functional, organism-based; parameters: dose 100 mg/kg
Vaccinia virus WR [16] = test: Antiviral activity against Vaccinia virus WR ATCC VR-1354 infected through intravenous route in BALB/c mouse assessed as protection against virus-induced systemic disease symptoms at 100 mg/kg, po qd measured after 9 days postinfection; format: functional, organism-based; parameters: dose 100 mg/kg
Vaccinia virus WR [17] = test: Antiviral activity against Vaccinia virus WR ATCC VR-1354 infected through percutaneous route in BALB/c mouse assessed as protection against virus-induced satellite lesion formation on tails at 100 mg/kg, po qd measured after 6 days postinfection; format: functional, organism-based; parameters: dose 100 mg/kg
Vaccinia virus WR [18] = test: Antiviral activity against Vaccinia virus WR ATCC VR-1354 infected through subcutaneous route in BALB/c mouse assessed as protection against virus-induced conjunctivitis in mouse eyes at 100 mg/kg, po qd measured after 6 days postinfection; format: functional, organism-based; parameters: dose 100 mg/kg
Vaccinia virus WR [19] = test: Antiviral activity against Vaccinia virus WR ATCC VR-1354 infected through intraperitoneal route in BALB/c mouse assessed as protection against virus-induced conjunctivitis in mouse eyes at 100 mg/kg, po qd measured after 6 days postinfection; format: functional, organism-based; parameters: dose 100 mg/kg
Vaccinia virus WR [20] = test: Antiviral activity against Vaccinia virus WR ATCC VR-1354 infected through percutaneous route in BALB/c mouse assessed as reduction of viral load in blood at 100 mg/kg, po qd measured after 3 days postinfection by RT-PCR analysis relative to control; format: functional
Vaccinia virus WR [21] = test: Antiviral activity against Vaccinia virus WR ATCC VR-1354 infected through percutaneous route in BALB/c mouse assessed as reduction of viral load in spleen at 100 mg/kg, po qd measured after 3 days postinfection by RT-PCR analysis relative to control; format: functional
Vaccinia virus WR [22] = test: Antiviral activity against Vaccinia virus WR ATCC VR-1354 infected through percutaneous route in BALB/c mouse assessed as reduction of viral load in liver at 100 mg/kg, po qd measured after 3 days postinfection by RT-PCR analysis relative to control; format: functional
Vaccinia virus WR [23] = test: Antiviral activity against Vaccinia virus WR ATCC VR-1354 infected through percutaneous route in BALB/c mouse assessed as reduction of viral load in liver at 100 mg/kg, po qd measured after 5 days postinfection by RT-PCR analysis relative to control; format: functional
Vaccinia virus WR [24] = test: Antiviral activity against Vaccinia virus WR ATCC VR-1354 infected through percutaneous route in BALB/c mouse assessed as reduction of viral load in brain at 100 mg/kg, po qd measured after 5 days postinfection by RT-PCR analysis relative to control; format: functional
Vaccinia virus WR [25] = test: Antiviral activity against Vaccinia virus WR ATCC VR-1354 infected through percutaneous route in BALB/c mouse assessed as reduction of viral load in blood at 100 mg/kg, po qd measured after 7 days postinfection by RT-PCR analysis relative to control; format: functional, organism-based; parameters: dose 100 mg/kg
Vaccinia virus WR [26] = test: Antiviral activity against Vaccinia virus WR ATCC VR-1354 infected through percutaneous route in BALB/c mouse assessed as reduction of viral load in spleen at 100 mg/kg, po qd measured after 13 days postinfection by RT-PCR analysis relative to control; format: functional, organism-based; parameters: dose 100 mg/kg

O=C(NN1C(=O)[C@@H]2[C@@H]3C=C[C@@H]([C@H]4C[C@@H]34)[C@@H]2C1=O)c1ccc(C(F)(F)F)cc1 [TECOVIRIMAT]
Activity (Vaccinia virus WR [1]): Active
fold change (FC) (Vaccinia virus WR [2]): 8
fold change (FC) (Vaccinia virus WR [3]): 23
Activity (Vaccinia virus WR [4]): inactive
Activity (Vaccinia virus WR [5]): inactive
fold change (FC) (Vaccinia virus WR [6]): 22
fold change (FC) (Vaccinia virus WR [7]): 528
fold change (FC) (Vaccinia virus WR [8]): 53
fold change (FC) (Vaccinia virus WR [9]): 25
fold change (FC) (Vaccinia virus WR [10]): 3900
Activity (Vaccinia virus WR [11]): Active
Activity (Vaccinia virus WR [12]): inactive
Activity (Vaccinia virus WR [13]): Active
Activity (Vaccinia virus WR [14]): Active
Activity (Vaccinia virus WR [15]): Active
Activity (Vaccinia virus WR [16]): Active
Activity (Vaccinia virus WR [17]): Active
Activity (Vaccinia virus WR [18]): Active
Activity (Vaccinia virus WR [19]): Active
fold change (FC) (Vaccinia virus WR [20]): 8
fold change (FC) (Vaccinia virus WR [21]): 300
fold change (FC) (Vaccinia virus WR [22]): 45
fold change (FC) (Vaccinia virus WR [23]): 300
fold change (FC) (Vaccinia virus WR [24]): 13
Activity (Vaccinia virus WR [25]): Active
Activity (Vaccinia virus WR [26]): Active
